5 molecules from patent US7999119B2, “Compounds having CRTH2 antagonist activity” (Oxagen Limited, priority 2006, dated 2011) can be followed below.

The assay has as its system PGD2 induced eosinophil shape change. As to the kind of experiment: Human whole blood eosinophil shape change assay. Conditions: Homo sapiens, Eosinophil, 10 nm PGD2-induced eosinophil shape change, human whole blood; read-out: Whole Blood IC50. It is filed as cell-based. How it is done: Human Whole Blood Eosinophil Shape Change Assay
Compounds 1 to 3 were assayed for their effect on PGD2 induced eosinophil shape change and were compared with Comparator Compounds A to G.
Shape Change Assay in Whole Blood
Compounds (1 μl, 200× final concentration) were added directly to 200 μl whole blood, mixed well and incubated for 15 min, 37° C., 5% CO2. After this time, cell shape was fixed by addition of 300 μl Cytofix™ buffer (BD Biosciences), 15 min on ice. 10 ml RBC lysis buffer was added to the fixed cells, incubated 5 min, at room temperature and centrifuged, 300×g for 5 min. Supernatant (containing lysed red cells) was removed and the lysis step was repeated. Leukocytes were resuspended in 250 μl RPMI/10% FCS and shape change analysed by FACS. Eosinophils were gated out based on their autofluorescence and 2000 eosinophil events were counted per sample. Data were analysed in triplicate.

What is called IC50 is the midpoint of a concentration-inhibition curve. For `Cc1c(Cc2ccc(S(=O)(=O)c3ccccc3)cc2)c2cc(F)ccc2n1CC(=O)O` [Compound C, 2-{5-Fluoro-2-methyl-3-[4-(phenylsulfonyl)benzyl]-1H-indol-1-yl}acetic acid], the concentration for half-maximal inhibition (IC50) was 273 nM. Take `Cc1c(Cc2ccc(S(=O)(=O)c3ccc(Cl)cc3)cc2)c2cc(F)ccc2n1CC(=O)O` [Compound D, 2-{3-[4-(4-chlorophenylsulfonyl)benzyl]-5-fluoro-2-methyl-1H-indol-1-yl}acetic acid]: the 50% inhibitory concentration (IC50) turned out to be 494 nM. The result for `Cc1c(Cc2ccc(S(=O)(=O)c3ccc(F)cc3)cc2)c2cc(F)ccc2n1CC(=O)O` [Compound E, 2-{5-Fluoro-3-[4-(4-fluorophenylsulfonyl)benzyl]-2-methyl-1H-indol-1-yl}acetic acid] reads 71 nM. As to `Cc1c(Cc2cccc(S(=O)(=O)c3ccccc3)c2)c2cc(F)ccc2n1CC(=O)O` [Compound F, 2-{5-Fluoro-2-methyl-3-[3-(phenylsulfonyl)benzyl]-1H-indol-1-yl}acetic acid], the IC50 stood at 1500 nM.

As for `Cc1c(Cc2cccc(S(=O)(=O)c3ccc(Cl)cc3)c2)c2cc(F)ccc2n1CC(=O)O` [Compound G, 2-{3-[3-(4-chlorophenylsulfonyl)benzyl]-5-fluoro-2-methyl-1H-indol-1-yl}acetic acid], the IC50 turned out to be 4660 nM.
